“And” between values parts separate entries of the source, which are not always exact repeats. Identical values can stand only once. Like-named read-outs stand apart in the source and are kept apart here. Where only a bound is given, the exact number is not on record here.

The target in experiment [1] is T1, HIV-1 RT-associated RNase H activity, N474A RT (Human immunodeficiency virus type 1 group M subtype B, UniProt P04585, N1061A).
T1 construct: The 1:1 ration between the p66/p51 subunits was also verified; made in house; host or cells: E. coli M15
As to the kind of experiment: biochemical. It is filed as biochemical, HIV-1 group M subtype B. How it is done: (§1) HIV RT-associated RNase H activity was measured as described in 100 μL reaction volume containing 50 mM Tris-HCl buffer pH 7.8, 6 mM MgCl2, 1 mM dithiothreitol (DTT), 80 mM KCl, 0.25 μM hybrid RNA/DNA 5'-[…]-Fluorescin-3' (HPLC, dry, QC: Mass Check) (available from Metabion) 5'-Dabcyl-[…]-3'(HPLC, dry, QC: Mass Check), increasing concentrations of inhibitors, whose dilution were made in water, and different amount of enzymes according to a linear range of dose-response curve: 20 ng of WT RT; 60 ng K103N RT; 37.5 ng V106A RT; 75 ng V108A RT; 5 ng Y181C RT; 50 ng Y188A RT; 30 ng Y188L RT; 100 ng E224A RT; 37.5 ng P225A RT; 20 ng P226A RT; 18 ng F227A RT; 30 ng L228A RT; 30 ng W229A RT; 10 ng M230A RT; 30 ng G231A RT; 62.5 ng N474A RT; 1 μg Y501A RT; 100 ng A502F RT; 37.5 ng A508V RT; 38 ng HIV-1 group O RT. The reaction mixture was incubated for 1 h at 37°C, stopped by addition of EDTA and products were measured with a multilabel counter plate reader Victor 3 (Perkin Elmer model 1420–051) equipped with filters for 490/528 nm (excitation/emission wavelength)

Experiment [2] deals with T2, HIV-1 RT-associated RNase H activity, Y501A RT (Human immunodeficiency virus type 1 group M subtype B, UniProt P04585, Y1088A).
T2 construct: The 1:1 ration between the p66/p51 subunits was also verified; made in house; host or cells: E. coli M15
As to the kind of experiment: biochemical. It is filed as biochemical, HIV-1 group M subtype B. How it is done: as §1

Experiment [3] deals with T3, HIV-1 RT-associated RNase H activity, Y181C RT (Human immunodeficiency virus type 1 group M subtype B, UniProt P04585, Y768C).
T3 construct: The 1:1 ration between the p66/p51 subunits was also verified; made in house; host or cells: E. coli M15
The experiment can be described thus: RNase H activity assay, Y181C RT. The class given is biochemical, HIV-1 group M subtype B. How it is done: (§2) HIV RT-associated RNase H activity was measured as described in 100 μL reaction volume containing 50 mM Tris-HCl buffer pH 7.8, 6 mM MgCl2, 1 mM dithiothreitol (DTT), 80 mM KCl, 0.25 μM hybrid RNA/DNA 5'-GAUCUGAGCCUGGGAGCU-Fluorescin-3' (HPLC, dry, QC: Mass Check) (available from Metabion) 5'-Dabcyl-AGCTCCCAGGCTCAGATC-3'(HPLC, dry, QC: Mass Check), increasing concentrations of inhibitors, whose dilution were made in water, and different amount of enzymes according to a linear range of dose-response curve: 20 ng of WT RT; 60 ng K103N RT; 37.5 ng V106A RT; 75 ng V108A RT; 5 ng Y181C RT; 50 ng Y188A RT; 30 ng Y188L RT; 100 ng E224A RT; 37.5 ng P225A RT; 20 ng P226A RT; 18 ng F227A RT; 30 ng L228A RT; 30 ng W229A RT; 10 ng M230A RT; 30 ng G231A RT; 62.5 ng N474A RT; 1 μg Y501A RT; 100 ng A502F RT; 37.5 ng A508V RT; 38 ng HIV-1 group O RT. The reaction mixture was incubated for 1 h at 37°C, stopped by addition of EDTA and products were measured with a multilabel counter plate reader Victor 3 (Perkin Elmer model 1420–051) equipped with filters for 490/528 nm (excitation/emission wavelength)

In experiment [4] the test system is HIV-1 RT-associated RNase H activity, M230A RT. The experiment can be described thus: RNase H activity assay, M230A RT. The class given is biochemical, HIV-1 group M subtype B. To be noted: M230A RT. How it is done:
as §2

Experiment [5] has as its target T4, HIV-1 RT-associated RNase H activity, M230A RT (Human immunodeficiency virus type 1 group M subtype B, UniProt P04585, M817A).
T4 construct: The 1:1 ration between the p66/p51 subunits was also verified; made in house; host or cells: E. coli M15
As to the kind of experiment: RNase H activity assay, M230A RT. The class given is biochemical, HIV-1 group M subtype B. How it is done: as §2

The target in experiment [6] is T5, HIV-1 RT-associated RNase H activity, K103N RT (Human immunodeficiency virus type 1 group M subtype B, UniProt P04585, K690N).
T5 construct: The 1:1 ration between the p66/p51 subunits was also verified; made in house; host or cells: E. coli M15
The experiment can be described thus: RNase H activity assay, K103N RT. It is filed as biochemical, HIV-1 group M subtype B. How it is done:
as §2

Experiment [7] concerns the target T6, HIV-1 RT-associated RNase H activity, E224A RT (Human immunodeficiency virus type 1 group M subtype B, UniProt P04585, E811A).
T6 construct: The 1:1 ration between the p66/p51 subunits was also verified; made in house; host or cells: E. coli M15
As to the kind of experiment: RNase H activity assay, E224A RT. The class given is biochemical, HIV-1 group M subtype B. Conditions: for Fold of increase of RNase H IC50 with respect to wt RT: E224A RT. How it is done: as §2

Experiment [8] has as its system HIV-1 RT-associated RNase H activity, P226A RT. As to the kind of experiment: RNase H activity assay, P226A RT. The class given is biochemical, HIV-1 group M subtype B. To be noted: P226A RT. How it is done:
as §2

In experiment [9] the target is T7, HIV-1 RT-associated RNase H activity, P226A RT (Human immunodeficiency virus type 1 group M subtype B, UniProt P04585, P813A).
T7 construct: The 1:1 ration between the p66/p51 subunits was also verified; made in house; host or cells: E. coli M15
The experiment can be described thus: RNase H activity assay, P226A RT. The class given is biochemical, HIV-1 group M subtype B. How it is done: as §2

The next experiment addresses T8, p66/p51 HIV-1 RT (Human immunodeficiency virus type 1 group M subtype B, UniProt P04585).
T8 construct: The 1:1 ration between the p66/p51 subunits was also verified; made in house; host or cells: E. coli M15
The experiment can be described thus: Thermal stability by differential scanning fluorimetry. To be noted: increasing concentrations of inhibitor. It is filed as binding. How it is done:
Thermal stability assays were performed according to Nettleship et al.. […] The mixture was heated from 30 to 90°C in increments of 0.2°C. Fluorescence intensity was measured using excitation and emission wavelengths of 483 and 568 nm, respectively. Changes in protein thermal stability (ΔTm) upon inhibitor binding were analyzed by using the LightCycler 480 software. All assays were performed in triplicate.
Background: DSF heats the sample and reads unfolding from a dye or from intrinsic fluorescence.

Experiment [10] addresses T9, HIV-1 RT-associated RNase H activity, V106A RT (Human immunodeficiency virus type 1 group M subtype B, UniProt P04585, V693A).
T9 construct: The 1:1 ration between the p66/p51 subunits was also verified; made in house; host or cells: E. coli M15
As to the kind of experiment: RNase H activity assay, V106A RT. The class given is biochemical, HIV-1 group M subtype B. How it is done: as §2

The target in experiment [11] is T10, HIV-1 RT-associated RNase H activity, F227A RT (Human immunodeficiency virus type 1 group M subtype B, UniProt P04585, F814A).
T10 construct: The 1:1 ration between the p66/p51 subunits was also verified; made in house; host or cells: E. coli M15
As to the kind of experiment: RNase H activity assay, F227A RT. The class given is biochemical, HIV-1 group M subtype B. How it is done:
as §2

Experiment [12] deals with T11, HIV-1 RT-associated RNase H activity, A502F RT (Human immunodeficiency virus type 1 group M subtype B, UniProt P04585, A1089F).
T11 construct: The 1:1 ration between the p66/p51 subunits was also verified; made in house; host or cells: E. coli M15
As to the kind of experiment: RNase H activity assay, A502F RT. The class given is biochemical, HIV-1 group M subtype B. Conditions: for Fold of increase of RNase H IC50 with respect to wt RT: A502F RT. How it is done:
as §2

The IC50 is the midpoint of a concentration-inhibition curve. Regarding `CC(C)c1ccc(O)c(=O)c(O)c1` [BTP, β-thujaplicinol, reference compound], the IC50 in experiment [1] was determined as 920 ± 10 nM; in [2] it was 70 ± 2 nM; in experiment [3] (Y181C RT, read-out: IC50 RNase H), 230 ± 50 nM; in [5], 140 ± 40 nM; in [6] (K103N RT, read-out: IC50 RNase H) it was 220 ± 80 nM; in [7] it was 150 ± 30 nM. For the same compound, the concentration for half-maximal inhibition (IC50) in [9] was determined as 290 ± 80 nM; in [10] it was 160 ± 30 nM; in [11], 220 ± 40 nM; in [12] it was 170 ± 30 nM. For the same compound, the “Fold of increase of RNase H IC50 with respect to wt RT” value in experiment [1] (N474A RT) came out at 4.8; in experiment [2] (Y501A RT) it was 0.4; in [4] it was 0.7; in experiment [7] it was 0.8; in experiment [8], 1.5; in experiment [12], 0.9. Moreover, the “Tm increase of HIV-1 RT” value at p66/p51 HIV-1 RT (in the presence of Mg2+) is less than 2.0 °C.
For the compound `N#Cc1ccc(-c2csc(NN=C3C(=O)Nc4ccccc43)n2)cc1` [RMNC6, (Z)-4-(2-(2-(2-oxoindolin-3-ylidene)hydrazinyl)thiazol-4-yl)benzonitrile], the IC50 is greater than 100000 nM in experiment [1]; greater than 100000 nM in experiment [2]; 2100 ± 600 nM in experiment [3]; 500 ± 100 nM in experiment [5]; 2300 ± 100 nM in experiment [6]; 7900 ± 1100 nM in experiment [7]. Moreover, the IC50 came out at 1900 ± 100 nM in experiment [9], 5300 ± 600 nM in experiment [10], 700 ± 100 nM in experiment [11] and 13000 ± 700 nM in [12]. Also, the “Fold of increase of RNase H IC50 with respect to wt RT” value was greater than 77 in [1] (N474A RT); greater than 77 in experiment [2] (Y501A RT); 0.4 in experiment [4]; 6 and 6.1 in experiment [7]; 1.5 in experiment [8]; 10.0 in [12]. The “Resistance of RNase H function” value in experiment [1] (N474A RT) and in experiment [2] (Y501A RT) was “full resistance” each time. Besides, the “Effect on RT thermal stability” value on p66/p51 HIV-1 RT is “did not affect significantly”.

For the origin of these results see PMC4723341, “Ribonuclease H/DNA Polymerase HIV-1 Reverse Transcriptase Dual Inhibitor: Mechanistic Studies on the Allosteric Mode of Action of Isatin-Based Compound RMNC6” (PLoS ONE, 2016).
